According to the supplement of paper PMC10307832:

Tests used:
Test in all cases: relative viability (nuclei count vs DMSO), 5 days (fraction); higher = more cells survive
FH535 = compound: CC1=C(C=CC(=C1)[N+](=O)[O-])NS(=O)(=O)C2=C(C=CC(=C2)Cl)Cl [FH535]
Procedure, shortened: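 Viability was read as treated-well nuclei divided by vehicle-well nuclei, using the median across plates. Lung cancer cell lines in 1536-well plates were kept overnight at 37 °C, pinned with five √10-spaced library-drug doses, and after 5 days were Hoechst-stained, imaged at 4× and counted in MetaXpress. Plates passed only with control CV below 25% and at least one doubling.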

FH535 + Crizotinib = compound: CC1=C(C=CC(=C1)[N+](=O)[O-])NS(=O)(=O)C2=C(C=CC(=C2)Cl)Cl [FH535] + C[C@@H](Oc1cc(-c2cnn(C3CCNCC3)c2)cnc1N)c1c(Cl)ccc(F)c1Cl [Crizotinib] (partner 1 µM)
Procedure, shortened: (§1)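 Medians of duplicate plates are given as relative viability. That measure is the nuclei count in treated wells divided by the count in vehicle wells. Counts were taken on 4× images of lung cancer cell lines in 1536-well plates, 5 days after pin-tool dosing the day after seeding with one drug alone or a fixed anchor-drug dose plus five library-drug doses (not always all listed) in √10 steps.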

FH535 + Luminespib = compound: CC1=C(C=CC(=C1)[N+](=O)[O-])NS(=O)(=O)C2=C(C=CC(=C2)Cl)Cl [FH535] + CCNC(=O)c1noc(-c2cc(C(C)C)c(O)cc2O)c1-c1ccc(CN2CCOCC2)cc1 [Luminespib] (partner 0.01 µM)
Procedure, shortened: as §1

FH535 + Linsitinib = compound: CC1=C(C=CC(=C1)[N+](=O)[O-])NS(=O)(=O)C2=C(C=CC(=C2)Cl)Cl [FH535] + C[C@]1(O)C[C@@H](c2nc(-c3ccc4ccc(-c5ccccc5)nc4c3)c3c(N)nccn32)C1 [Linsitinib] (partner 1 µM)
Procedure, shortened: as §1

FH535 + Vorinostat = compound: CC1=C(C=CC(=C1)[N+](=O)[O-])NS(=O)(=O)C2=C(C=CC(=C2)Cl)Cl [FH535] + O=C(CCCCCCC(=O)Nc1ccccc1)NO [Vorinostat] (partner 1 µM)
Procedure, shortened: as §1

Cell Line	relative viability (FH535; 0.04 µM)	relative viability (FH535; 0.1265 µM)	relative viability (FH535; 0.4 µM)	relative viability (FH535; 1.265 µM)	relative viability (FH535 + Crizotinib; first compound 0.04 µM)	relative viability (FH535 + Crizotinib; first compound 0.1265 µM)	relative viability (FH535 + Crizotinib; first compound 0.4 µM)	relative viability (FH535 + Crizotinib; first compound 1.265 µM)	relative viability (FH535 + Luminespib; first compound 0.04 µM)	relative viability (FH535 + Luminespib; first compound 0.1265 µM)	relative viability (FH535 + Luminespib; first compound 0.4 µM)	relative viability (FH535 + Luminespib; first compound 1.265 µM)	relative viability (FH535 + Linsitinib; first compound 0.04 µM)	relative viability (FH535 + Linsitinib; first compound 0.1265 µM)	relative viability (FH535 + Linsitinib; first compound 0.4 µM)	relative viability (FH535 + Linsitinib; first compound 1.265 µM)	relative viability (FH535 + Vorinostat; first compound 0.04 µM)	relative viability (FH535 + Vorinostat; first compound 0.1265 µM)	relative viability (FH535 + Vorinostat; first compound 0.4 µM)	relative viability (FH535 + Vorinostat; first compound 1.265 µM)
201T	0.976	1	0.884	0.862	0.99	1.09	0.975	0.875	1.04	1.03	1.03	0.735	1.05	1.03	0.95	0.964	0.905	0.948	0.855	0.929
A549	0.878	0.887	0.928	0.789	0.749	0.783	0.631	0.41	–	–	–	–	0.497	0.627	0.641	0.568	–	–	–	–
A-427	0.908	1.05	0.926	0.819	0.929	0.908	0.784	0.721	0.778	1.19	0.885	0.703	1.13	1.18	1.07	0.981	0.862	0.846	0.845	0.725
ABC-1	1	0.858	0.812	0.774	1.19	0.866	1.2	0.618	0.543	0.861	0.627	0.337	0.963	0.836	0.864	0.788	0.944	1	0.934	0.607
BEN	0.92	0.946	0.862	0.653	0.813	0.859	0.792	0.535	0.211	0.466	0.285	0.119	0.811	0.976	0.918	0.508	0.51	0.583	0.548	0.525
CAL-12T	0.989	0.977	0.819	0.591	0.817	0.691	0.719	0.556	0.331	0.496	0.727	0.536	0.871	0.796	0.712	0.598	0.562	0.927	0.802	0.492
COR-L23	0.98	1.03	0.842	0.573	0.626	0.656	0.57	0.434	0.73	0.612	0.5	0.435	0.926	0.889	0.722	0.581	0.442	0.462	0.422	0.343
COR-L 105	0.882	1.08	0.76	0.82	0.751	0.885	0.792	0.86	0.499	0.952	0.738	0.671	0.903	0.933	0.894	0.91	0.793	0.857	0.848	0.876
